Test results: US9464113B2, “Anti-heparan sulfate peptides that block herpes simplex virus infection in vivo” (The Board of Trustees of the University of Illinois, priority 2010, dated 2016)
No end group written: not given here.

How the values were obtained:
[1] = tested on: HSV-1 (KOS); assay: Mouse cornea model of HSV-1 infection (immunohistochemistry); type: in vivo, BALB/c mice
Description: BALB/c mice with pre-scarred corneal upper surface were treated with PBS-based eye drops containing 0.5 mM G1, G2, or control peptide followed by inoculation of HSV-1 (KOS). Mice were sacrificed after 4 and 7 days for HSV-1 detection. Immunohistochemistry was performed as described by Akhtar et al., Invest. Ophthalmol. Vis. Sci. 49:4026-4035 (2008). Briefly, tissue sections were hydrated with distilled water and antigen retrieval was performed using DAKO Target Retrieval Solution 10× concentrate (DAKO, Carpinteria, Calif.). Nonspecific staining was blocked using H2O2 solution for 10 minutes followed by a protein block for 10 minutes. Sections were incubated with HSV-1 gD specific antiserum (1:100 dilution) at room temperature for 1 hr followed by a 40-minute incubation with the secondary antibody (HRP-conjugated goat anti-rabbit IgG, 1:500; Sigma, St. Louis, Mo.). Expression of gD was detected using the DAKO Envision^+ kit. Confocal and differential interference contrast (DIC) image acquisition was conducted with an SB2-AOBS confocal microscope (Leica, Solms, Germany).
Immunohistochemistry was used to locate HSV-1 glycoprotein D (gD) expression in the cornea pre-treated with either a control peptide, G1 or G2 followed by HSV-1 infection. 100 μl of G1, G2, or Cp (control) peptide at 0.5 mM concentration was poured into the mouse cornea as a prophylactic “eye drop” followed by an infection with HSV-1 (KOS) at 10^6 PFU. At 4 or 7 days post infection, immunohistochemistry was performed using anti-HSV-1 gD polyclonal antibody.

[2] = tested on: HSV-1 (KOS) gL86; assay: HSV-1 entry assay in CHO-K1 cells expressing gD receptors (3-OST-3, nectin-1, HVEM); type: cell-based, herpes simplex virus type-1; details: CHO-K1 cells expressing one of three gD receptors; dose-dependent
Description: (§1) HSV-1 entry was assayed as described in Shukla et al., Cell 99:13-22 (1999). CHO-K1 cells were grown in 6-well plates to subconfluence and then transfected with 2.5 μg of expression plasmids for gD receptors nectin-1 (pBG38), HVEM (pBec10), 3-OST-3 isoform (pDS43), or pCDNA3.1 (empty vector) using LipofectAMINE (Gibco/BRL). At 16 h post-transfection, the cells were replated into 96-well dishes for pre-incubation with peptides at different concentrations for 60 min at room temperature. In parallel, natural target cells (HeLa, CF, and RPE) were also pre-treated with the peptides for the same duration. In all cases, unbound peptides were removed after washing 3× with PBS. Thereafter, cells were infected for 6 h with a recombinant virus, HSV-1 (KOS) gL86, at multiple plaque forming units (PFUs) and β-galactosidase assays were performed using either a soluble substrate o-nitrophenyl-β-D-galactopyranoside (ONPG at 3.0 mg/ml; ImmunoPure, Pierce) or X-gal (Sigma). For the soluble substrate, the enzymatic activity was measured at 410 nm using a micro-plate reader (Spectra Max 190, Molecular Devices, Sunnyvale, Calif.). For the X-gal assay, cells were fixed (2% formaldehyde and 0.2% glutaraldehyde) and permeabilized (2 mM MgCl2, 0.01% deoxycholate, and 0.02% nonidet NP-40 (Sigma)). 1 ml of β-galactosidase reagent (1.0 mg/ml X-gal in ferricyanide buffer) was added to each well and incubated at 37° C. for 90 min before the cells were examined using bright field microscopy under the 20× objectives of the inverted microscope (Zeiss Axiovert 100 M).
Peptide sequences from individual plaques were deduced by determining the nucleotide sequences of the portion of the phage genome that encoded them. The predicted peptide sequences of about 200 plaques were determined and sorted into two groups on the basis of their targets. […] After 6 hr, the cells were washed, permeabilized, and incubated with ONPG substrate (3.0 mg/ml) for quantitation of β-galactosidase activity expressed from the input viral genome. The enzymatic activity was measured at an optical density of 410 nm (OD410). […]

[3] = tested on: HSV-1 (KOS) gL86; assay: HSV-1 entry into HeLa cells (ONPG and X-gal); type: cell-based, herpes simplex virus type-1; details: for blocking of HSV-1 entry/infection: HeLa cells, 60 min pre-treatment, 25 pfu/cell, 6 hr
Description: as §1
The ability of the G1 and G2 peptides to block HSV-1 entry into natural target cells (HeLa and primary cultures of human CF) was compared. A similar dosage response curve was generated when HeLa (FIG. 2A) or CF (FIG. 2B) were pre-treated with G1 or G2 peptides during HSV-1 entry. […] HeLa cells (FIG. 2A) and primary cultures of human corneal fibroblasts (CF) (FIG. 2B) were tested. Cells in 96-well plates were pre-treated for 60 min with indicated mM concentrations of G1, G2, or Cp peptides. Mock-treated cells (abbreviated as C) served as a control. Pretreated cells were infected with a β galactosidase-expressing recombinant virus HSV-1 (KOS) HSV-1 gL86 (25 pfu/cell) for 6 hr. Viral entry was quantitated as described above in reference to FIG. 1. Confirmation of HSV-1 entry blocking activity of G1, G2, and control (Cp) peptides on a per cell basis was obtained after cells were infected as described above followed by X-gal (1.0 mg/ml) staining (Right panels), which yields an insoluble blue product upon hydrolysis by β-galactosidase expressed from the input viral genomes. […] Microscopy was performed using a 20× objective of Zeiss Axiovert 100.

[4] = 100 μl eye drop at 0.5 mM before 10^6 PFU, 4 and 7 days post infection

## LRSRTKIIRIRH [G1, LRSRTKIIRIRH]
[1]; [4]
  HSV-1 protein (gD) expression in cornea: virtually no HSV-1 protein expression was detected
  state of corneal epithelium: epithelium remained intact
[2]
  blocking of HSV-1 entry: able to block HSV-1 entry
[3]
  blocking of HSV-1 entry/infection: effective in blocking infection of individual cells

## MPRRRRIRRRQK [G2, MPRRRRIRRRQK]
[1]; [4]
  HSV-1 protein (gD) expression in cornea: virtually no HSV-1 protein expression was detected
  state of corneal epithelium: epithelium remained intact
[2]
  blocking of HSV-1 entry: able to block HSV-1 entry
[3]
  blocking of HSV-1 entry/infection: effective in blocking infection of individual cells
[3]; in virtually all cases (FIGS. 1 and 2)
  effectiveness in blocking entry compared with G1: slightly more effective in blocking entry than G1

## RVCGSIGKEVLG [Cp, reference compound]
[1]; 0.5 mM eye drop, day 4
  HSV-1 gD staining in cornea: significant staining for HSV-1 gD
  corneal inflammation: severe chronic inflammation
[1]; 0.5 mM eye drop, day 7
  HSV-1 staining in cornea: gone
  state of corneal epithelium: damage to the corneal epithelium was still evident
[2]
  blocking of HSV-1 entry: did not inhibit HSV-1 entry
[3]
  blocking of HSV-1 entry/infection: no effect on HSV-1 entry
